Results as given in patent US9951149B2, “Reversible heparin molecules and methods of making and using the same” (The University of North Carolina at Chapel Hill, priority 2013, dated 2018).
“Also recorded” adds a separate entry of the source.

What was measured:
[1] = biological target: antithrombin (AT) (Homo sapiens, UniProt P01008); assay: Binding affinity of LMWHs to antithrombin by affinity co-electrophoresis; conditions: 35S-labeled compounds; average of two or three determinations
Experimental: The dissociation constant (Kd) of each sample and AT was determined using affinity co-electrophoresis (Lee, M. K. & Lander, A. D., Proc. Natl. Acad. Sci. USA 88, 2768-2772, 1991). Approximately 1500-2500 cpm of ^35S-labeled LMWH Compounds 1 to 5 was loaded per lane with zones of AT at concentrations 0, 8, 16, 32, 60, 120, 250, 500 and 1000 nM. The gel was performed at 300 mA for 2 h, dried and analyzed on a Phospholmager (Amersham Biosciences, Wauwatosa, Wis., United States of America Storm 860). The retardation coefficient was calculated at R=(M0−M)/M0, where M0 is the mobility of the polysaccharide through the zone without AT, and M is the mobility of the sample through each separation zone. The retardation coefficient was then plotted against the retardation coefficient divided by its respective concentration of AT. The slope of the line represents −1/Kd.

[2] = Clearance of LMWHs in vivo: retention of 35S-labeled material in mouse liver; conditions: BALB/c mice, lateral tail vein injection, 12 min (FIG. 4A)
Experimental: The mouse experiment was approved by the University of Nebraska Animal Care and Use Committees. Five to six week old BALB/c mice (Harlan Laboratories, Indianapolis, Ind., United States of America) weighing 18-20 g were anesthetized in a small 34° C. chamber with a flow of oxygen containing 4% isoflurane. Once the mice were unconscious, they were individually placed on a heated pad with a nose cone fitted over their snout with a constant flow of oxygen containing 2% isoflurane. A specific amount of ^35S-labeled LMWH Compound, LMWH, or UFH was injected via the lateral tail vein using a 27G1/2 needle mounted on a 1 ml syringe. The labeled material was allowed to circulate in the blood for 12 min while the mouse lay unconscious. The abdominal cavity was exposed by incision and the liver was collected, washed, and weighed. Approximately 100 mg from each of the lobes was homogenized in 0.75 ml 1% NP-40 and then centrifuged at 12,000×g for 2 min to pellet insoluble material. The supernatant was then added to 4 ml scintillation fluid, mixed for 30 min by rocking and then radioactivity was assessed by a Beckman Coulter LS6500 scintillation counter. The data is presented as the percentage of CPM in total liver divided by total CPM injected±standard error of 3-5 mice per ligand.

[3] = test system: human factor Xa; assay: Neutralization of LMWHs by protamine in mice, ex vivo anti-Xa activity in mouse plasma; conditions: C57BL/6J mice, s.c. test compound, protamine 15 mgkg^−1 i.v. 30 min later, plasma 5 min later (FIG. 4C)
Experimental: The study was performed on eight week old male C57BL/6J mice (Jackson Laboratories, Bar Harbor, Me., United States of America) (n=4 per group). The mouse experiments were approved by the UNC Animal Care and Use Committees and complied with National Institutes of Health guidelines. Under isoflurane anesthesia, mice were subcutaneously administered with PBS, UFH (3 mgkg^−1), LOVENOX® (3 mgkg^−1) or Compound 5 (0.6 mgkg^−1) 30 min prior to a protamine administration. […] To obtain mouse plasma, blood samples were centrifuged at 4,000 g for 15 min at 4° C. Mouse plasma was then used to determine anti-Xa activity. Ex vivo analysis of anti-Xa activity was done similar to the in vitro study described above. Briefly, plasma (10 μl) from different groups of mice was incubated with 80 nM human factor Xa (10 μl) at room temperature for 4 minutes and S-2765 (1 mgml^−1, 30 μl) was then added. The anti-Xa activity in the mouse plasma from the PBS injected mice was defined as 100%. Statistical analysis for multiple comparisons was performed by two-way ANOVA with Bonferroni's post-hoc test (GraphPad Prism Software, La Jolla, Calif., United States of America).

[4] = test system: mice; assay: Mouse model of tail bleeding; format: in vivo; conditions: for effect of protamine on primary bleeding time after tail transection: protamine 15 mgkg^−1 i.v. (FIG. 4D)
Experimental: Under isoflurane anesthesia, mice (n=8 per group) were administered with PBS or Compound 5 (0.6 mgkg^−1) subcutaneously, 30 min later PBS or protamine (15 mgkg^−1) was administered via retro-orbital intravenous injection. After 5 minutes the distal part of the tail was transected at the constant diameter (1.5 mm), approximately 3-4 mm from the end. That results in both arterial and venous bleeding. […] The primary bleeding time was defined as the time to the first cessation of bleeding. Subsequently, time for each reinitiated bleeding was also recorded, and used to calculate total bleeding time. One mouse in Compound 5/protamine group received an inaccurate protamine injection and was excluded from the study. The blood collected in PBS was used to calculate total blood volume loss. Formic acid was added to samples (70:30 ratio) and absorbance was measured at 405 nm. A standard curve was generated by mixing […] of PBS with known amounts of blood. Statistical analysis between each group was performed by one-way ANOVA (GraphPad Prism Software, La Jolla, Calif., United States of America) followed by Bonferroni's multiple comparison test.

antithrombin (AT), sequence (P01008 33-464): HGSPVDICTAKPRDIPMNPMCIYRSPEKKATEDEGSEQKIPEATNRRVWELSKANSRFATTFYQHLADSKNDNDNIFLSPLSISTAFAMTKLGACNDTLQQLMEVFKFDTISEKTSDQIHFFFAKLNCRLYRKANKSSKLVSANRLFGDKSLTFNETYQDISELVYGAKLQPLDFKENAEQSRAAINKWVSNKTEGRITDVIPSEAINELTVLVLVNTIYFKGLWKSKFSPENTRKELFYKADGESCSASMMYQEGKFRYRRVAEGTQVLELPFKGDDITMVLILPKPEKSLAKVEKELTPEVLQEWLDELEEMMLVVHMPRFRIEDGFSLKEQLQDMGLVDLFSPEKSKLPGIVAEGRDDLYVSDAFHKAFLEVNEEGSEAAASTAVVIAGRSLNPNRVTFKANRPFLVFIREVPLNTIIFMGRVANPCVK

| Compound | Kd [1] [nM] | retention in the liver [2] | ex vivo reversibility of anti-FXa activity by protamine [3] | effect of protamine on blood loss after tail transection ([4]; mice, Compound 5 0.6 mgkg^−1 s.c., protamine 15 mgkg^−1 i.v.) | effect of protamine on primary bleeding time after tail transection ([4]; mice, Compound 5 0.6 mgkg^−1 s.c.) | effect of protamine on primary bleeding time after tail transection ([4]; mice, Compound 5 0.6 mgkg^−1 s.c., listed as compound 5) | reversal of anti-Xa activity in an in vivo experiment ([4]; mouse tail bleeding model, protamine) |
| --- | --- | --- | --- | --- | --- | --- | --- |
| O=C(O)C1OC(OC2C(COS(=O)(=O)O)OC(OC3C(C(=O)O)OC(OC4C(COS(=O)(=O)O)OC(OC5C(C(=O)O)OC(Oc6ccc([N+](=O)[O-])cc6)C(O)C5O)C(NS(=O)(=O)O)C4O)C(OS(=O)(=O)O)C3O)C(NS(=O)(=O)O)C2OS(=O)(=O)O)C(O)C(O)C1OC1OC(COS(=O)(=O)O)C(O)C(O)C1NS(=O)(=O)O (stereo not drawn) [Compound 1] | 7 | very low level of retention in the liver | – | – | – | – | – |
| O=C(O)C1OC(OC2C(COS(=O)(=O)O)OC(OC3C(C(=O)O)OC(OC4C(COS(=O)(=O)O)OC(OC5C(C(=O)O)OC(OC6C(COS(=O)(=O)O)OC(OC7C(C(=O)O)OC(Oc8ccc([N+](=O)[O-])cc8)C(O)C7O)C(NS(=O)(=O)O)C6O)C(OS(=O)(=O)O)C5O)C(NS(=O)(=O)O)C4O)C(OS(=O)(=O)O)C3O)C(NS(=O)(=O)O)C2OS(=O)(=O)O)C(O)C(O)C1OC1OC(COS(=O)(=O)O)C(O)C(O)C1NS(=O)(=O)O (stereo not drawn) [Compound 2] | 8 | very low level of retention in the liver | – | – | – | – | – |
| O=C(O)C1OC(OC2C(COS(=O)(=O)O)OC(OC3C(C(=O)O)OC(OC4C(COS(=O)(=O)O)OC(OC5C(C(=O)O)OC(OC6C(COS(=O)(=O)O)OC(OC7C(C(=O)O)OC(OC8C(COS(=O)(=O)O)OC(OC9C(C(=O)O)OC(Oc%10ccc([N+](=O)[O-])cc%10)C(O)C9O)C(NS(=O)(=O)O)C8O)C(OS(=O)(=O)O)C7O)C(NS(=O)(=O)O)C6O)C(OS(=O)(=O)O)C5O)C(NS(=O)(=O)O)C4O)C(OS(=O)(=O)O)C3O)C(NS(=O)(=O)O)C2OS(=O)(=O)O)C(O)C(O)C1OC1OC(COS(=O)(=O)O)C(O)C(O)C1NS(=O)(=O)O (stereo not drawn) [Compound 3] | 5 | retained in the liver; also recorded: internalized in mice liver | – | – | – | – | – |
| CC(=O)NC1C(OC2C(C(=O)O)OC(OC3C(COS(=O)(=O)O)OC(OC4C(C(=O)O)OC(OC5C(COS(=O)(=O)O)OC(OC6C(C(=O)O)OC(OC7C(COS(=O)(=O)O)OC(OC8C(C(=O)O)OC(OC9C(COS(=O)(=O)O)OC(OC%10C(C(=O)O)OC(OC%11C(COS(=O)(=O)O)OC(OC%12C(C(=O)O)OC(Oc%13ccc([N+](=O)[O-])cc%13)C(O)C%12O)C(NS(=O)(=O)O)C%11O)C(OS(=O)(=O)O)C%10O)C(NS(=O)(=O)O)C9O)C(OS(=O)(=O)O)C8O)C(NS(=O)(=O)O)C7O)C(OS(=O)(=O)O)C6O)C(NS(=O)(=O)O)C5O)C(OS(=O)(=O)O)C4O)C(NS(=O)(=O)O)C3OS(=O)(=O)O)C(O)C2O)OC(COS(=O)(=O)O)C(O)C1O (stereo not drawn) [Compound 4] | 30 | retained in the liver; also recorded: internalized in mice liver | – | – | – | – | – |
| CC(=O)NC1C(OC2C(C(=O)O)OC(OC3C(COS(=O)(=O)O)OC(OC4C(C(=O)O)OC(OC5C(COS(=O)(=O)O)OC(OC6C(C(=O)O)OC(OC7C(COS(=O)(=O)O)OC(OC8C(C(=O)O)OC(OC9C(COS(=O)(=O)O)OC(OC%10C(C(=O)O)OC(OC%11C(COS(=O)(=O)O)OC(OC%12C(C(=O)O)OC(Oc%13ccc([N+](=O)[O-])cc%13)C(O)C%12O)C(NS(=O)(=O)O)C%11O)C(OS(=O)(=O)O)C%10O)C(NS(=O)(=O)O)C9OS(=O)(=O)O)C(OS(=O)(=O)O)C8O)C(NS(=O)(=O)O)C7O)C(OS(=O)(=O)O)C6O)C(NS(=O)(=O)O)C5O)C(OS(=O)(=O)O)C4O)C(NS(=O)(=O)O)C3OS(=O)(=O)O)C(O)C2O)OC(COS(=O)(=O)O)C(O)C1O (stereo not drawn) [Compound 5] | 28 | retained in the liver; also recorded: internalized in mice liver | reversible | reduced the blood loss | protamine shortened the primary bleeding time | significantly shortened the primary bleeding time | can be reversed |
